Reference: patent US12473304B2, “Heterocyclic PAD4 inhibitors” (BRISTOL-MYERS SQUIBB COMPANY, priority 2020, dated 2025)

What follows are compounds tested against human PAD4 (hPAD4) (Homo sapiens (Human), UniProt Q9UM07) (assay: RFMS Human PAD4 Functional Assay 1). Settings: RFMS assay 1; 5 nM hPAD4, 250 μM BAEE substrate, 50 μM calcium, 37° C.
Type: biochemical
Procedure, shortened: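 Citrullination product read by RapidFire triple-quad MRM against a modified-citrulline internal standard, after TCA stop and 30 min phenyl glyoxal step at 37 °C. Reaction: 250 μM BAEE, 5 nM human PAD4, 90 min at 37 °C, pH 7.5 HEPES buffer with 50 μM calcium and 5 μM TPEN, following 30 min compound–enzyme preincubation (max 50 μM).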

human PAD4 (hPAD4), sequence (Q9UM07 whole entry): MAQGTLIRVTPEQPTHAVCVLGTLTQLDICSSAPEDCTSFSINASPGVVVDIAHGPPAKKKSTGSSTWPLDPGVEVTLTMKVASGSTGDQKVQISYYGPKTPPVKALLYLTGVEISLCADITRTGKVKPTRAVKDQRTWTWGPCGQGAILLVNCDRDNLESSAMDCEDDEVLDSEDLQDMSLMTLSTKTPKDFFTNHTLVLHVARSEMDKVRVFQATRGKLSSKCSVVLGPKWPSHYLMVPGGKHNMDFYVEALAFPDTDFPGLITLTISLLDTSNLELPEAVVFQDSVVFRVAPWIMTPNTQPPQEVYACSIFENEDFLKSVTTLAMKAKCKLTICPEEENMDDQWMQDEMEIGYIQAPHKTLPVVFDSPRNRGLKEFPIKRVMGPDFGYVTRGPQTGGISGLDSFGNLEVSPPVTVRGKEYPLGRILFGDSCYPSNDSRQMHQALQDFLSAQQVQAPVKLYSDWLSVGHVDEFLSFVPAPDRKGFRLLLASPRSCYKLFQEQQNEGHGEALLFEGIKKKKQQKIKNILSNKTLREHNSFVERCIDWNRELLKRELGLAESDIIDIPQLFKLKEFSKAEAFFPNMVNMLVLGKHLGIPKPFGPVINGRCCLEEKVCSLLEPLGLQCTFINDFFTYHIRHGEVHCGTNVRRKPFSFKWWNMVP

SMILES	IC50 [nM]
Cc1c(-c2cc3ccc(-c4cccc(O)c4F)nc3n2CC2CC2)nn2cc(C(=O)N3CCC[C@@H](N)C3)cc(F)c12 [Example 283, 3-(2-{6-[(3R)-3-Aminopiperidine-1-carbonyl]-4-fluoro-3-methylpyrazolo[1,5-a]pyridin-2-yl}-1-(cyclopropylmethyl)-1H-pyrrolo[2,3-b]pyridin-6-yl)-2-fluorophenol]	330
Cc1c(-c2cc3ccc(-c4ccc5c(c4)CNC5=O)nc3n2CC2CC2)nn2cc(C(=O)N3CCC[C@@H](N)C3)cc(F)c12 [Example 284, 5-(2-{6-[(3R)-3-Aminopiperidine-1-carbonyl]-4-fluoro-3-methylpyrazolo[1,5-a]pyridin-2-yl}-1-(cyclopropylmethyl)-1H-pyrrolo[2,3-b]pyridin-6-yl)-2,3-dihydro-1H-isoindol-1-one]	1860
Cc1c(-c2cc3ccc(-c4ccc5c(c4)C(=O)NC5)nc3n2CC2CC2)nn2cc(C(=O)N3CCC[C@@H](N)C3)cc(F)c12 [Example 285, 6-(2-{6-[(3R)-3-Aminopiperidine-1-carbonyl]-4-fluoro-3-methylpyrazolo[1,5-a]pyridin-2-yl}-1-(cyclopropylmethyl)-1H-pyrrolo[2,3-b]pyridin-6-yl)-2,3-dihydro-1H-isoindol-1-one]	1270
Cc1cc(-c2ccc3cc(-c4nn5cc(C(=O)N6CCC[C@@H](N)C6)cc(F)c5c4C)n(CC4CC4)c3n2)ccc1C(N)=O [Example 286, 4-(2-{6-[(3R)-3-Aminopiperidine-1-carbonyl]-4-fluoro-3-methylpyrazolo[1,5-a]pyridin-2-yl}-1-(cyclopropylmethyl)-1H-pyrrolo[2,3-b]pyridin-6-yl)-2-methylbenzamide]	540
CNC(=O)c1ccc(-c2ccc3cc(-c4nn5cc(C(=O)N6CCC[C@@H](N)C6)cc(F)c5c4C)n(CC4CC4)c3n2)cn1 [Example 287, 5-(2-{6-[(3R)-3-Aminopiperidine-1-carbonyl]-4-fluoro-3-methylpyrazolo[1,5-a]pyridin-2-yl}-1-(cyclopropylmethyl)-1H-pyrrolo[2,3-b]pyridin-6-yl)-N-methylpyridine-2-carboxamide]	1280
Cc1c(-c2cc3ccc(Cl)nc3n2CC2CC2)nn2cc(C(=O)N3C[C@H](N)C[C@@H](F)C3)cc(Cl)c12 [Example 289, (3R,5R)-1-{4-Chloro-2-[6-chloro-1-(cyclopropylmethyl)-1H-pyrrolo[2,3-b]pyridin-2-yl]-3-methylpyrazolo[1,5-a]pyridine-6-carbonyl}-5-fluoropiperidin-3-amine]	3580
Cc1c(-c2cc3ccc(-c4ccc5[nH]ncc5c4)nc3n2CC2CC2)nn2cc(C(=O)N3C[C@H](N)C[C@@H](F)C3)cc(Cl)c12 [Example 290, (3R,5R)-1-{4-Chloro-2-[1-(cyclopropylmethyl)-6-(1H-indazol-5-yl)-1H-pyrrolo[2,3-b]pyridin-2-yl]-3-methylpyrazolo[1,5-a]pyridine-6-carbonyl}-5-fluoropiperidin-3-amine]	2720
Cc1c(-c2cc3ccc(Cl)nc3n2CC2CC2)nn2cc(C(=O)N3CCC[C@@H](N)C3)cc(Cl)c12 [Example 291, (3R)-1-{4-Chloro-2-[6-chloro-1-(cyclopropylmethyl)-1H-pyrrolo[2,3-b]pyridin-2-yl]-3-methylpyrazolo[1,5-a]pyridine-6-carbonyl}piperidin-3-amine]	5890
Cc1c(-c2cc3ccc(-c4ccc5[nH]ncc5c4)nc3n2CC2CC2)nn2cc(C(=O)N3CCC[C@@H](N)C3)cc(Cl)c12 [Example 292, (3R)-1-{4-chloro-2-[1-(Cyclopropylmethyl)-6-(1H-indazol-5-yl)-1H-pyrrolo[2,3-b]pyridin-2-yl]-3-methylpyrazolo[1,5-a]pyridine-6-carbonyl}piperidin-3-amine]	2350
Cc1c(-c2cc3ccc(-c4ccc(C(N)=O)cc4Cl)cc3n2CC2CC2)nn2cc(C(=O)N3CC4CCC3[C@@H]4N)cc(F)c12 (stereo partly drawn) [Example 294, 4-(2-{6-[(7R)-7-Amino-2-azabicyclo[2.2.1]heptane-2-carbonyl]-4-fluoro-3-methylpyrazolo[1,5-a]pyridin-2-yl}-1-(cyclopropylmethyl)-1H-indol-6-yl)-3-chlorobenzamide]	200
COC1CN(c2ccc3cc(-c4nn5cc(C(=O)N6CC7CCC6[C@@H]7N)cc(F)c5c4C)n(CC4CC4)c3c2)C1 (stereo partly drawn) [Example 296, (7R)-2-{2-[1-(Cyclopropylmethyl)-6-(3-methoxyazetidin-1-yl)-1H-indol-2-yl]-4-fluoro-3-methylpyrazolo[1,5-a]pyridine-6-carbonyl}-2-azabicyclo[2.2.1]heptan-7-amine]	850
Cc1c(-c2cc3ccc(-c4ccc5cn[nH]c5c4)nc3n2CC2CC2)nn2cc(C(=O)N3CC4CCC3[C@@H]4N)ccc12 (stereo partly drawn) [Example 298, (7R)-2-{2-[1-(Cyclopropylmethyl)-6-(1H-indazol-6-yl)-1H-pyrrolo[2,3-b]pyridin-2-yl]-3-methylpyrazolo[1,5-a]pyridine-6-carbonyl}-2-azabicyclo[2.2.1]heptan-7-amine]	210
COc1cc(-c2ccc3cc(-c4nn5cc(C(=O)N6CC7CCC6[C@@H]7N)ccc5c4C)n(CC4CC4)c3n2)ccc1C(N)=O (stereo partly drawn) [Example 303, 4-(2-{6-[(7R)-7-Amino-2-azabicyclo[2.2.1]heptane-2-carbonyl]-3-methylpyrazolo[1,5-a]pyridin-2-yl}-1-(cyclopropylmethyl)-1H-pyrrolo[2,3-b]pyridin-6-yl)-2-methoxybenzamide]	240

Stronger by IC50, values ahead:

IC50 [nM]	SMILES
190	Cc1c(-c2cc3ccc(-c4cccc5[nH]nc(F)c45)nc3n2CC2CC2)nn2cc(C(=O)N3CC4CCC3[C@@H]4N)ccc12 (stereo partly drawn) [Example 297, (7R)-2-{2-[1-(Cyclopropylmethyl)-6-(3-fluoro-1H-indazol-4-yl)-1H-pyrrolo[2,3-b]pyridin-2-yl]-3-methylpyrazolo[1,5-a]pyridine-6-carbonyl}-2-azabicyclo[2.2.1]heptan-7-amine]
120	Cc1c(-c2cc3ccc(-c4ccccc4N4CCNC4=O)nc3n2CC2CC2)nn2cc(C(=O)N3CC4CCC3[C@@H]4N)ccc12 (stereo partly drawn) [Example 302, 1-[2-(2-{6-[(7R)-7-Amino-2-azabicyclo[2.2.1]heptane-2-carbonyl]-3-methylpyrazolo[1,5-a]pyridin-2-yl}-1-(cyclopropylmethyl)-1H-pyrrolo[2,3-b]pyridin-6-yl)phenyl]imidazolidin-2-one]
100	Cc1c(-c2cc3ccc(-c4ccc5[nH]ncc5c4)nc3n2CC2CC2)nn2cc(C(=O)N3CC4CCC3[C@@H]4N)ccc12 (stereo partly drawn) [Example 300, (7R)-2-{2-[1-(Cyclopropylmethyl)-6-(1H-indazol-5-yl)-1H-pyrrolo[2,3-b]pyridin-2-yl]-3-methylpyrazolo[1,5-a]pyridine-6-carbonyl}-2-azabicyclo[2.2.1]heptan-7-amine]
80	Cc1c(-c2cc3ccc(-c4ccn5c(C)nnc5c4)nc3n2CC2CC2)nn2cc(C(=O)N3CCC[C@@H](N)C3)cc(F)c12 [Example 288, (3R)-1-{2-[1-(Cyclopropylmethyl)-6-{3-methyl-[1,2,4]triazolo[4,3-a]pyridin-7-yl}-1H-pyrrolo[2,3-b]pyridin-2-yl]-4-fluoro-3-methylpyrazolo[1,5-a]pyridine-6-carbonyl}piperidin-3-amine]
40	Cc1cc(C(N)=O)c(F)cc1-c1ccc2cc(-c3nn4cc(C(=O)N5CC6CCC5[C@@H]6N)ccc4c3C)n(CC3CC3)c2n1 (stereo partly drawn) [Example 305, 4-(2-{6-[(7R)-7-Amino-2-azabicyclo[2.2.1]heptane-2-carbonyl]-3-methylpyrazolo[1,5-a]pyridin-2-yl}-1-(cyclopropylmethyl)-1H-pyrrolo[2,3-b]pyridin-6-yl)-2-fluoro-5-methylbenzamide]
30	Cc1c(O)cccc1-c1ccc2cc(-c3nn4cc(C(=O)N5CC6CCC5[C@@H]6N)ccc4c3C)n(CC3CC3)c2n1 (stereo partly drawn) [Example 301, 3-(2-{6-[(7R)-7-Amino-2-azabicyclo[2.2.1]heptane-2-carbonyl]-3-methylpyrazolo[1,5-a]pyridin-2-yl}-1-(cyclopropylmethyl)-1H-pyrrolo[2,3-b]pyridin-6-yl)-2-methylphenol]
30	Cc1c(-c2cc3ccc(-c4ccc5cn[nH]c5c4F)nc3n2CC2CC2)nn2cc(C(=O)N3CC4CCC3[C@@H]4N)ccc12 (stereo partly drawn) [Example 306, (7R)-2-{2-[1-(Cyclopropylmethyl)-6-(7-fluoro-1H-indazol-6-yl)-1H-pyrrolo[2,3-b]pyridin-2-yl]-3-methylpyrazolo[1,5-a]pyridine-6-carbonyl}-2-azabicyclo[2.2.1]heptan-7-amine]
20	Cc1c(-c2cc3ccc(-c4ccn5c(C)nnc5c4)cc3n2CC2CC2)nn2cc(C(=O)N3CC4CCC3[C@@H]4N)cc(F)c12 (stereo partly drawn) [Example 295, (7R)-2-{2-[1-(Cyclopropylmethyl)-6-{3-methyl-[1,2,4]triazolo[4,3-a]pyridin-7-yl}-1H-indol-2-yl]-4-fluoro-3-methylpyrazolo[1,5-a]pyridine-6-carbonyl}-2-azabicyclo[2.2.1]heptan-7-amine]
20	Cc1c(-c2cc3ccc(-c4cccc5[nH]ncc45)nc3n2CC2CC2)nn2cc(C(=O)N3CC4CCC3[C@@H]4N)ccc12 (stereo partly drawn) [Example 299, (7R)-2-{2-[1-(Cyclopropylmethyl)-6-(1H-indazol-4-yl)-1H-pyrrolo[2,3-b]pyridin-2-yl]-3-methylpyrazolo[1,5-a]pyridine-6-carbonyl}-2-azabicyclo[2.2.1]heptan-7-amine]
10	Cc1c(-c2cc3ccc(-c4ccc(N5CCCC5=O)cc4)nc3n2CC2CC2)nn2cc(C(=O)N3CC4CCC3[C@@H]4N)ccc12 (stereo partly drawn) [Example 304, 1-[4-(2-{6-[(7R)-7-Amino-2-azabicyclo[2.2.1]heptane-2-carbonyl]-3-methylpyrazolo[1,5-a]pyridin-2-yl}-1-(cyclopropylmethyl)-1H-pyrrolo[2,3-b]pyridin-6-yl)phenyl]pyrrolidin-2-one]
